# Laboratory results reported in patent publication US20250375473A1, “Pharmaceutical composition for treating cancer comprising an ionic compound having metal ion binding thereto” (METAFINES.CO.LTD., priority 2018, published 2025).
# Like-named read-outs stand apart in the source and are kept apart here.
# What was measured:
# [1] = tested on: colorectal cancer cell line (DLD-1); assay: MTT assay, 72 h, colorectal cancer cell line; type: cell-based; details: for IC50: Homo sapiens
# Method: (§1) The calcium salts of Examples 1 to 3 were added to each well by concentration (20 mg/ ? , mg/ ? , 0.8 mg/ ? , 0.16 mg/ ? , 0.032 mg/ ? , 0.0064 mg/ ? , 0.00128 mg/ ? , 0.000256 mg/ ? ). […] The supernatant was removed using a centrifuge, DMSO 200 ? was added to each well to dissolve the MTT stained precipitate, and OD540 value was measured at 540 nm with an ELISA reader.
# [2] = tested on: breast cancer cell line (MDA-MB-231); assay: MTT assay, 72 h, breast cancer cell line; type: cell-based; details: for IC50: Homo sapiens, MDA-MB-231, 72 h; for IC50 of Breast cancer cell line: MDA-MB-231, 72 h, MTT
# Method: as §1
# [3] = tested on: brain cancer cell line (U87MG); assay: MTT assay, 72 h, brain cancer cell line; type: cell-based; details: for IC50: Homo sapiens, U-87 MG
# Method: as §1
# PDH enzyme = assay: Time-dependent PDH enzyme activity in cancer cells; type: cell-based; details: DLD-1 and HT-29 cancer cells; FIG. 29
# [4] = tested on: lung cancer cell line (A-549); assay: MTT assay, 48 h, A549
# Method: (§5) 7 cell lines were aliquoted to each well of a 96-well plate at 5×10^3 cells, and cultured for 24 hours. […] The drug-treated cells were cultured in an incubator (37° C., 5% CO2) for 48 hours, and 5 mg/ ? MTT reagent 10 ? was added to each well and cultured for additional 4 hours. Then, culture medium was removed and DMSO 100 ? was treated to dissolve the MTT stained precipitate, and absorbance was measured at 540 nm with a microplate reader.
# [5] = tested on: colorectal cancer cell line (HT-29); assay: MTT assay, 48 h, HT-29
# Method: as §5
# [6] = tested on: liver cancer cell line (HepG2); assay: MTT assay, 48 h, HepG2
# Method: as §5
# [7] = tested on: ovarian cancer cell line (A2780); assay: MTT assay, 48 h, A2780
# Method: as §5
# [8] = tested on: pancreatic cancer cell line (PANC-1); assay: MTT assay, 48 h, PANC-1
# Method: as §5
# [9] = tested on: colorectal cancer cell line (HCT-116); assay: MTT assay, 48 h, HCT-116; details: for IC50: Homo sapiens, HCT-116, 48 h
# Method: as §5
# [10] = tested on: stomach cancer cell line (SNU-638); assay: MTT assay, 48 h, SNU-638
# Method: as §5
# [11] = tested on: human colorectal cancer cell lines (HCT-116 and HT-29); assay: Change in ascorbic acid level in cancer cells; type: cell-based; details: 1 mM; 24 h; lysate; vs untreated control
# Method: After culture, the cultured cancer cells were pulverized with a homogenizer and centrifuged, and the concentration of ascorbic acid contained in the lysate was measured using an ascorbic acid assay kit (Biovision, San Francisco, CA).
# [12] = tested on: poly (ADP-ribose) polymerase 1 (PARP-1); assay: Western blot, PARP-1 expression in HCT-116; type: cell-based, human; details: 24 h
# Method: The cultured cancer cells were pulverized with a homogenizer and centrifuged, and the expression levels of poly (ADP-ribose) polymerase 1 (PARP-1), β-catenin, VEGF and β-actin proteins contained in the lysate were measured using Western blot.
# HCT-116 cell = assay: IC50 of each drug alone, 48 h, HCT-116; type: cell-based, human
# Method: (§2) Then, various concentration of Example or chemical anticancer drugs (Fluorouracil (5-FU), SN-38, Paclitaxel (PTX)) were treated thereto alone.
# HT-29 cell = assay: IC50 of each drug alone, 48 h, HT-29; type: cell-based, human
# Method: as §2
# DLD-1 cell = assay: IC50 of each drug alone, 48 h, DLD-1; type: cell-based
# Method: as §2
# DLD-1 = assay: Hetero salts vs homo salts, cell viability and cytotoxicity, DLD-1; type: cell-based; details: for viability at 10000 µM: DLD-1, read-out: cell viability, DLD-1 (10 mM)
# Method: (§3) Hetero salts prepared according to the examples (ASCA101, ASCA201) and homo salts were applied to colorectal cancer cell lines, and their effects on cell viability and cytotoxicity were evaluated.
# (§4) Herein, “Na-ASC” refers to sodium ascorbate, “Na-DCA” refers to sodium dichloroacetate, “Ca (ASC) 2” refers to calcium ascorbate, “Ca (DCA) 2” refers to calcium dichloroacetate, and “Ca (LA) 2” refers to calcium lactate.
# SW480 = assay: Hetero salts vs homo salts, cell viability and cytotoxicity, SW480; type: cell-based; details: for viability at 5000 µM: SW480, read-out: cell viability, SW480 (5 mM)
# Method: as §3, §4
# [13] = Homo sapiens, A549, 48 h, read-out: IC50 mM of A549 Lung cancer
# [14] = Homo sapiens, A549, 48 h, read-out: IC50 of A549 Lung cancer (mg/ml)
# [15] = Homo sapiens, HT-29, 48 h, read-out: IC50 mM of HT-29 Colorectal cancer cell line
# [16] = Homo sapiens, HT-29, 48 h, read-out: IC50 of HT-29 Colorectal cancer cell line (mg/ml)
# [17] = Homo sapiens, HepG2, 48 h, read-out: IC50 mM of HepG2 Liver cancer
# [18] = Homo sapiens, HepG2, 48 h, read-out: IC50 of HepG2 Liver cancer (mg/ml)
# [19] = Homo sapiens, A2780, 48 h, read-out: IC50 mM of A2780 Ovarian cancer
# [20] = Homo sapiens, A2780, 48 h, read-out: IC50 of A2780 Ovarian cancer (mg/ml)
# [21] = Homo sapiens, PANC-1, 48 h, read-out: IC50 mM of PANC-1 Pancreatic cancer
# [22] = Homo sapiens, PANC-1, 48 h, read-out: IC50 of PANC-1 Pancreatic cancer (mg/ml)
# [23] = read-out: IC50 mM of HCT-116 Colorectal cancer cell line
# [24] = read-out: IC50 of HCT-116 Colorectal cancer cell line (mg/ml)
# [25] = Homo sapiens, SNU-638, 48 h, read-out: IC50 mM of SNU-638 Stomach cancer
# [26] = Homo sapiens, SNU-638, 48 h, read-out: IC50 of SNU-638 Stomach cancer (mg/ml)
# [27] = read-out: IC50 value, HCT-116 cell
# [28] = Homo sapiens, HCT-116, read-out: IC50 value, HCT-116 cell
# [29] = Homo sapiens, DLD-1, read-out: cytotoxicity, DLD-1
# [30] = Homo sapiens, SW480, read-out: cytotoxicity, SW-480
compound,measurement,setting,value
"O=C(O)C(Cl)Cl [Dichloroacetic acid, dichloroacetic acid, reference compound]",IC50,"[1]; DLD-1, 72 h, read-out: IC50 of Colorectal cancer cell line (mg/ml)",1.21 mg/mL
same,IC50,[2]; read-out: IC50 of Breast cancer cell line (mg/ml),0.43 mg/mL
same,IC50,[3]; read-out: IC50 of Brain cancer cell line (mg/ml),3.71 mg/mL
same,time-dependent PDH activity,PDH enzyme,peaked at 6 hours post-treatment and subsequently declined
same,IC50,[4]; [13],> 5 mM
same,IC50,[4]; [14],> 1.7 mg/mL
same,IC50,[5]; [15],> 5 mM
same,IC50,[5]; [16],> 1.7 mg/mL
same,IC50,[6]; [17],> 5 mM
same,IC50,[6]; [18],> 1.7 mg/mL
same,IC50,[7]; [19],> 5 mM
same,IC50,[7]; [20],> 1.7 mg/mL
same,IC50,[8]; [21],> 5 mM
same,IC50,[8]; [22],> 1.7 mg/mL
same,IC50,[9]; [23],> 5 mM
same,IC50,[9]; [24],> 1.7 mg/mL
same,IC50,[10]; [25],> 5 mM
same,IC50,[10]; [26],> 1.7 mg/mL
"CC(O)C(=O)[O-].O=C1O[C@H]([C@@H](O)CO)C([O-])=C1O.[Ca+2] [Example 2, calcium salts of ascorbic acid and lactate]",ascorbic acid concentration in cancer cells,[11],increased
same,concentration at which expression level of full length PARP-1 was decreased the most,[12],0.34 mg/mL
same,IC50 of Colorectal cancer cell line,"[1]; DLD-1, 72 h, MTT",70 µg/mL
same,IC50 of Breast cancer cell line,[2],50 µg/mL
same,IC50 of Brain cancer cell line,"[3]; U87MG, MTT",600 µg/mL
same,IC50,HCT-116 cell; [27],430 µM
same,IC50,HT-29 cell,1800 µM
same,IC50,DLD-1 cell,340 µM
same,IC50,DLD-1,8600 µM
same,IC50,SW480,2600 µM
same,IC50 of A549 Lung cancer (mg/ml),"[4]; 48 h, MTT, value in brackets",(1.06) mg/ml
same,IC50,"[4]; read-out: IC50 mM of A549 Lung cancer, 48 h, MTT",3.1 mM
same,IC50 of HT-29 Colorectal cancer cell line (mg/ml),"[5]; 48 h, MTT, value in brackets",(0.23) mg/ml
same,IC50,"[5]; read-out: IC50 mM of HT-29 Colorectal cancer cell line, 48 h, MTT",0.66 mM
same,IC50 of HepG2 Liver cancer (mg/ml),"[6]; 48 h, MTT, value in brackets",(0.79) mg/ml
same,IC50,"[6]; read-out: IC50 mM of HepG2 Liver cancer, 48 h, MTT",2.3 mM
same,IC50 of A2780 Ovarian cancer (mg/ml),"[7]; 48 h, MTT, value in brackets",(0.05) mg/ml
same,IC50,"[7]; read-out: IC50 mM of A2780 Ovarian cancer, 48 h, MTT",0.14 mM
same,IC50 of PANC-1 Pancreatic cancer (mg/ml),"[8]; 48 h, MTT, value in brackets",(0.14) mg/ml
same,IC50,"[8]; read-out: IC50 mM of PANC-1 Pancreatic cancer, 48 h, MTT",0.4 mM
same,IC50 of HCT-116 Colorectal cancer cell line (mg/ml),"[9]; 48 h, MTT, value in brackets",(0.11) mg/ml
same,IC50 of SNU-638 Stomach cancer (mg/ml),"[10]; 48 h, MTT, value in brackets",(0.49) mg/ml
same,IC50,"[10]; read-out: IC50 mM of SNU-638 Stomach cancer, 48 h, MTT",1.44 mM
"CC(O)C(=O)[O-].O=C([O-])C(Cl)Cl.[Ca+2] (stereo not shown) [Example 3, calcium salts of dichloroacetic acid and lactate]",concentration at which expression level of full length PARP-1 was decreased the most,[12],0.3 mg/mL
same,IC50 of Colorectal cancer cell line,"[1]; DLD-1, 72 h, MTT",860 µg/mL
same,IC50 of Breast cancer cell line,[2],50 µg/mL
same,IC50 of Brain cancer cell line,"[3]; U87MG, MTT",800 µg/mL
"O=c1[nH]cc(F)c(=O)[nH]1 [Fluorouracil (5-FU), Fluorouracil]",IC50,HCT-116 cell; [28],6 µM
"O=C1O[C@H]([C@@H](O)CO)C([O-])=C1O.[Na+] [Na-ASC, sodium ascorbate]",viability at 10000 µM,DLD-1; Homo sapiens,65.3%
same,IC50,DLD-1; [29],9600 µM
same,viability at 5000 µM,SW480; Homo sapiens,40.8%
same,IC50,SW480; [30],3000 µM
"O=C([O-])C(Cl)Cl.[Na+] [Na-DCA, sodium dichloroacetate]",viability at 10000 µM,DLD-1; Homo sapiens,75.4%
same,IC50,DLD-1; [29],> 10000 µM
same,viability at 5000 µM,SW480; Homo sapiens,99.8%
same,IC50,SW480; [30],> 5000 µM
"CC(=O)O[C@H]1C(=O)[C@@]2(C)[C@H]([C@H](OC(=O)c3ccccc3)[C@]3(O)C[C@H](OC(=O)[C@H](O)[C@@H](NC(=O)c4ccccc4)c4ccccc4)C(C)=C1C3(C)C)[C@]1(OC(C)=O)CO[C@@H]1C[C@@H]2O [Paclitaxel (PTX), Paclitaxel]",IC50,HCT-116 cell; [28],0.0078 µM
CCc1c2c(nc3ccc(O)cc13)-c1cc3c(c(=O)n1C2)COC(=O)[C@]3(O)CC [SN-38],IC50,HCT-116 cell; [27],0.25 µM
"O=C1O[C@H]([C@@H](O)CO)C(O)=C1O [ascorbic acid, reference compound]",ascorbic acid concentration in cancer cells,[11],lower level of increased ascorbic acid concentration
same,IC50,"[1]; DLD-1, 72 h, MTT, read-out: IC50 of Colorectal cancer cell line",0.09 mg/mL
same,IC50,[2]; read-out: IC50 of Breast cancer cell line,0.06 mg/mL
same,IC50,"[3]; U87MG, MTT, read-out: IC50 of Brain cancer cell line",0.9 mg/mL
same,IC50,[4]; [13],> 5 mM
same,IC50,[4]; [14],> 1.7 mg/mL
same,IC50,[5]; [15],0.93 mM
same,IC50,[5]; [16],0.32 mg/mL
same,IC50,[6]; [17],4.2 mM
same,IC50,[6]; [18],1.44 mg/mL
same,IC50,[7]; [19],0.15 mM
same,IC50,[7]; [20],0.05 mg/mL
same,IC50,[8]; [21],0.37 mM
same,IC50,[8]; [22],0.13 mg/mL
same,IC50,[9]; [23],0.27 mM
same,IC50,[9]; [24],0.09 mg/mL
same,IC50,[10]; [25],2.48 mM
same,IC50,[10]; [26],0.85 mg/mL
calcium ascorbate [Ca(ASC)2],ascorbic acid concentration in cancer cells,[11],lower level of increased ascorbic acid concentration
same,"cell viability, DLD-1 (10 mM)",DLD-1,27.51
same,"cell viability, SW480 (5 mM)",SW480,33.19
calcium dichloroacetate [Ca(DCA)2],"cell viability, DLD-1 (10 mM)",DLD-1,62.53
same,"cell viability, SW480 (5 mM)",SW480,105.98
